# Data as given in patent US9296831B2, “Herbal extract composition for the treatment of diabetes and a method of extracting the same” (priority 2014, dated 2016).
# Assays:
# Wistar rats = assay: Post prandial blood sugar (BS) levels in STZ-induced diabetic rats; format: in vivo, rat; details: oligosaccharide 16 mg/kg, metformin 15 mg/kg/day
# Experimental: According to one embodiment herein, the oligosaccharide is administered to rats after purification and structural analysis of the oligosaccharide. The eight week old Wistar rats, weighing from 200-250 gm are purchased from Pasteur institute (Tehran, Iran). The animals are kept on a standard diet with free access to water and food throughout the study. All treatments and maintenance of the animals are carried out in accordance with the principles of laboratory animal care. Further diabetes is induced in the animals except the controls by a single intraperitoneal injection of STZ (60 mg/kg) freshly dissolved in citrate buffer of 5 mmol/L and a pH of 4.5. After an elapse of 48 hrs since the injection of streptozocin (STZ), the diabetes is confirmed by measuring the glucose levels in the blood samples. The blood samples are obtained from the retro-orbital sinus of the animals under diethyl ether-induced light anesthesia with GlucoDr Glucometer (Allmedicus; Germany). […] The first group comprises ten rats and is administered with the oligosaccharide. The second group comprises eight rats and the rats in the second group are injected with the citrate buffer. This group is called a negative control group. The amount of citrate buffer administered to the second group and the amount of oligosaccharide administered to the first group are same or equal. The rats in the oligosaccharide treated groups are given different doses (8-40 mg/kg) of the pure materials dissolved in distilled water twice daily for 21 days starting from the third day since the STZ injection. […] The molecules of glybenclamide or metformin are administered intraperitoneally or by oral gavage and stopped after three weeks. The water intake and urine volume are measured throughout the study. Twenty four hours after the administration of the last dose of oligosaccharide, the blood glucose is monitored in fasting and non-fasting states. The body and pancreas weights are compared. Oral glucose tolerance test, insulin tolerance test, gluconeogenesis inhibition test and alfa glucosidase inhibition tests are conducted. […] The untreated negative controls received no molecule, while the test group received oligosaccharide and the positive control received either metformin or glybenclamide. FIG. 2 illustrates a flow chart indicating the administration and testing of the anti-diabetic effect of oligosaccharide molecule, according to an embodiment herein. The process of administering and testing the antidiabetic effect of oligosaccharide molecule comprises purchasing eight week old male Wistar rats weighing 200-250 gm (201). The rats are purchased from Pasteus Institute (Tehran, Iran). The rats are kept on a standard diet with free access to water and food throughout the study. All the treatments and maintenance of the animals is carried out in accordance with the principles of laboratory animal care. Inducing diabetes by stretozotocin (STZ) 60 mg/kg injection (202). The diabetes is induced in all rats except in the rats in the control group by intraperitoneal injection of STZ freshly dissolved in 5 mmol/L citrate buffer (pH 4.5). The diabetes is confirmed 48 hrs after STZ infection by measuring blood glucose levels (203). The blood from rats is obtained from retro-orbital sinus of the animals under diethyl ether induced light anesthesia with GlucoDr Glucometer (Allmedicus; Germany). […] The rats in positive control, negative control and oligosaccharide treated group are divided into different groups (204). The rats in the negative control group are injected with citrate buffer for three weeks (205). The rats in the positive control group are injected with glybendamide and metformin for three weeks (206). The rats in the oligosaccharide group are injected with different concentration (8-40 mg/kg) of oligosaccharide for three weeks (207). The oligosaccharide is dissolved in distilled water and administered twice daily after STZ injection induced diabetes. […]
# rats [1] = assay: Sub acute toxicity test, biochemistry, 15 days; format: in vivo
# Experimental: (§1) According to one embodiment herein, the acute, sub acute and sub chronic toxicological tests are performed based on the standard protocols. For the acute sequential design procedure of LD-50, limit dose test were done and mortality rate is recorded up to 14 days. […] For the animals in the control groups, distilled water is administered by the same protocols. At the end of the time period, the rats are killed and the body specimens are collected for the determination of biochemical, hematological and pathological parameters.
# rats [2] = details: rat, in vivo
# Experimental: According to one embodiment herein, the acute, sub acute and sub chronic toxicological tests are performed based on the standard protocols. For the acute sequential design procedure of LD-50, limit dose test were done and mortality rate is recorded up to 14 days. Sub acute and sub chronic toxicological tests are performed by an administration of 160 mg/kg (10 folds of therapeutics dose) for 21 and 52 days respectively. For the animals in the control groups, distilled water is administered by the same protocols. At the end of the time period, the rats are killed and the body specimens are collected for the determination of biochemical, hematological and pathological parameters.
# rats [3] = assay: Sub acute toxicity test, hematology, 15 days; format: in vivo
# Experimental: as §1
# [4] = 21 days after treatment, glybenclamide 5 mg/kg/day
# [5] = 30 days after withdrawal of the treatment, glybenclamide 5 mg/kg/day
# [6] = before treatment (baseline), glybenclamide 5 mg/kg/day groups
structure (smiles),measurement,setting,value
"COc1ccc(Cl)cc1C(=O)NCCc1ccc(S(=O)(=O)NC(=O)NC2CCCCC2)cc1 [Glybenclamide, glybenclamide]","BS levels mg/dl (SD), post prandial",Wistar rats; [4],250(63) mg/dl
same,"BS levels mg/dl (SD), post prandial",Wistar rats; [5],363(64) mg/dl
same,"BS levels mg/dl (SD), post prandial",Wistar rats; [6],360(41) mg/dl
"CN(C)C(=N)N=C(N)N [Metformin, metformin]","BS levels mg/dl (SD), post prandial",Wistar rats; [4],261(49) mg/dl
same,"BS levels mg/dl (SD), post prandial",Wistar rats; [5],375(59) mg/dl
same,"BS levels mg/dl (SD), post prandial",Wistar rats; [6],375(57)(20) mg/dl
COC(=O)C1OC(O)C(O)C(O)C1OC1OC(C(=O)OC)C(OC2OC(C(=O)OC)C(OC3OC(C(=O)O)C(O)C(O)C3O)C(O)C2OC(C)=O)C(O)C1O (centres unmarked) [Oligosaccharide],ALP,rats [1]; 16 mg/kg,442.69 ± 90.54 u/l
same,ALT,rats [1]; 16 mg/kg,146.33 ± 18.41 u/l
same,AST,rats [1]; 16 mg/kg,169.41 ± 17.5 u/l
same,Alb,rats [1]; 16 mg/kg,3.22 ± 0.04 g/dL
same,CPK,rats [1]; 16 mg/kg,1341.5 ± 311.12 u/l
same,Chol,rats [1]; 16 mg/kg,82.15 ± 22.11 mg/dL
same,Cr,rats [1]; 16 mg/kg,0.66 ± 0.02 mg/dL
same,Glucose,rats [1]; 16 mg/kg,113.61 ± 16.4 mg/dL
same,LDH,rats [1]; 16 mg/kg,2019.7 ± 390.4 u/l
same,TG,rats [1]; 16 mg/kg,98.41 ± 15.63 mg/dL
same,Urea,rats [1]; 16 mg/kg,54.71 ± 9.98 mg/dL
same,Uric acid,rats [1]; 16 mg/kg,1.62 ± 0.32 mg/dL
same,ALP,rats [1]; 160 mg/kg,351.37 ± 63.21 u/l
same,ALT,rats [1]; 160 mg/kg,142.31 ± 21.32 u/l
same,AST,rats [1]; 160 mg/kg,177.51 ± 24.2 u/l
same,Alb,rats [1]; 160 mg/kg,3.24 ± 0.05 g/dL
same,CPK,rats [1]; 160 mg/kg,1398.3 ± 115.5 u/l
same,Chol,rats [1]; 160 mg/kg,81.11 ± 14.31 mg/dL
same,Cr,rats [1]; 160 mg/kg,0.65 ± 0.04 mg/dL
same,Glucose,rats [1]; 160 mg/kg,109.3 ± 10.4 mg/dL
same,LDH,rats [1]; 160 mg/kg,2110.5 ± 504.7 u/l
same,TG,rats [1]; 160 mg/kg,97.99 ± 17.49 mg/dL
same,Urea,rats [1]; 160 mg/kg,54.87 ± 6.63 mg/dL
same,Uric acid,rats [1]; 160 mg/kg,1.58 ± 0.25 mg/dL
same,abnormality in pathologic studies,rats [2],no abnormality is observed
same,HCT,rats [3]; 16 mg/kg,42.8 ± 2.9%
same,Hb,rats [3]; 16 mg/kg,14.3 ± 0.6 g/dL
same,MCH,rats [3]; 16 mg/kg,18.1 ± 4.9 pg
same,MCHC,rats [3]; 16 mg/kg,33.8 ± 4.7 g/dL
same,MCV,rats [3]; 16 mg/kg,54.51 ± 3.2 fL
same,PLT,rats [3]; 16 mg/kg,9.4 ± 1.3 ×105/ml
same,RBC,rats [3]; 16 mg/kg,8.08 ± 1.3 ×106/ml
same,WBC,rats [3]; 16 mg/kg,10.5 ± 3.3 ×103/ml
same,HCT,rats [3]; 160 mg/kg,42.6 ± 1.1%
same,Hb,rats [3]; 160 mg/kg,14.1 ± 0.3 g/dL
same,MCH,rats [3]; 160 mg/kg,18.3 ± 3.9 pg
same,MCHC,rats [3]; 160 mg/kg,33.9 ± 5.1 g/dL
same,MCV,rats [3]; 160 mg/kg,55.9 ± 2.5 fL
same,PLT,rats [3]; 160 mg/kg,9.3 ± 2.1 ×105/ml
same,RBC,rats [3]; 160 mg/kg,7.98 ± 1.9 ×106/ml
same,WBC,rats [3]; 160 mg/kg,8.9 ± 2.9 ×103/ml
same,"BS levels mg/dl (SD), post prandial",Wistar rats; [4],150(21) mg/dl
same,"BS levels mg/dl (SD), post prandial",Wistar rats; [5],144(18) mg/dl
same,"BS levels mg/dl (SD), post prandial",Wistar rats; [6],364(41) mg/dl
